Measured values taken from PMC7603461, “Synthesis and in vitro characterization of the genotoxic, mutagenic and cell-transforming potential of nitrosylated heme” (Archives of Toxicology, 2020).
Like-named read-outs stand apart in the source and are kept apart here.

What was measured:
[1] = tested on: V79 Chinese hamster lung fibroblasts; design: method as in Cajelli et al. ([1987]); conditions: ref Cajelli et al. ([1987]); cited from earlier work
[2] = tested on: heme oxygenase 1 (HO-1) in Caco-2 cells; assay: HO-1 expression as surrogate marker of cellular uptake (SDS-PAGE and Western blotting); assay type: cell-based, human; conditions: 50 and 100 µM, 24-h incubation, compared to control samples
Protocol: (§1) The cellular uptake of NO-heme and hematin was qualitatively investigated by using the expression of the intracellular heme-degrading protein heme oxygenase 1 (HO-1) as surrogate marker. Its expression was analyzed via SDS-PAGE and Western blotting in NO-heme-treated Caco-2 cells. Beforehand, the cytotoxicity of the heme species as well as solvents was evaluated using a commercial kit measuring cell viability based on the WST-1 reagent obtained from Roche Diagnostics (Mannheim, Germany) and performed according to the manufacturer's instructions. Briefly, 5 × 10^4 cells/well were seeded in 96-well plates (TPP) and incubated for 24 h. Then, the cells were treated with the test substances in triplicate for a further 24 h before they were washed with phosphate buffered saline (PBS) and incubated for 1.5 h with 100 μl/well medium supplemented with 10% (v/v) WST-1 reagent. Finally, absorption was measured at 450 nm (with a reference wavelength at 650 nm). For HO-1 expression analysis, Caco-2 cells (3 × 10^5/3.5 cm plate) were treated for 24 h as mentioned above, with 2% acetone/H2O and 2% acetone/NaOH serving as solvent controls. […] After final washings steps, proteins were detected with enhanced chemoluminescence using an Azure 300 CL imaging system (Azure biosystems, Dublin, USA). […]

Caco-2 cells [3] = assay: WST-1 cytotoxicity assay; assay type: cell-based, human; conditions: 50 µM
Protocol: as §1

BALB/c 3T3 cells [4] = assay: Single cell electrophoresis assay (comet assay), BALB/c 3T3; assay type: cell-based, murine; conditions: 1 h treatment; for increase of the tail intensity (genotoxic effect): heme species up to 100 µM, nitrite control 100 µM
Protocol: (§2) DNA-damaging effects of NO-heme were determined in Caco-2 and BALB/c 3T3 cells using the single cell electrophoresis assay (comet assay). […] The comet assay was performed as previously reported (Briviba et al. [2016]), with the following modifications: 2.15 × 10^4 cells/well were seeded in 6-well plates (Corning, Kennebunk, USA) and cultivated for five days. At day six after seeding, the cells were treated for 1 h with the different test substances diluted in Hank’s Balanced Salt Solution (HBSS; Lonza). Hydrogen peroxide and iron sulfate (both from Sigma-Aldrich) served as positive controls. After treatment, the cells were prepared as previously published (Briviba et al. [2016]) and incubated in a specific lysis buffer (100 mM Na2EDTA, 1% Triton X-100, […] NaCl, 1% lauroyl sarcosine sodium salt, 10 mM tris(hydroxymethyl)aminomethane [TRIS] and 10% dimethyl sulfoxide; all purchased from Merck, Darmstadt, Germany) for 1 h at 4 °C. Then, microscope slides were incubated in electrophoresis buffer (1 mM Na2EDTA, 300 mM NaOH; Merck) for 20 min at room temperature, followed by an electrophoresis run at 25 V and 300 mA for 40 min. Thereafter, the slides were washed three times with TRIS buffer (0.4 M; pH 7.5) and stained using 85 µl of a 4,6-diamidino-2-phenylindole solution (5 µg ml^−1; Merck). For quantification of the results, 100 cells per slide were analyzed using a DM 400 B fluorescence microscope (Leica, Wetzlar, Germany) connected to the Comet Assay II Image Analysis System (Perceptive Instruments, Halstedt, UK).

Caco-2 cells [5] = assay: Single cell electrophoresis assay (comet assay), Caco-2; assay type: cell-based, human; conditions: for genotoxic effects (tail intensity): Caco-2 cells, 1 h treatment, increasing concentrations of heme species, nitrite control 100 µM
Protocol: as §2

[6] = tested on: Salmonella typhimurium strain TA100
Protocol: (§3) The Ames test was performed according to the pre-incubation method described by Mortelmans and Zeiger ([2000]), albeit with slight modifications. Briefly, the lyophilized Salmonella typhimurium strains TA100 (lot number 5220D, Trinova, Gießen, Germany) and TA1535 (lot number 5209D, Trinova) were cultured overnight in 50 ml nutrient broth no. 2 (Thermo Scientific) at 37 °C. Subsequently, the bacterial cultures were shaken for two hours at 125 rpm and 37 °C until the suspension reached an optical density of 1–1.3 at 600 nm. Then, 100 µl of the suspension were mixed with 500 µl of sodium phosphate buffer (final concentrations: 12 mM NaH2PO4, 88 mM Na2HPO4 [pH 7.4]; all components purchased from Carl Roth) and 50 µl of the test compound. Sodium azide (Sigma-Aldrich) was used as positive control and dissolved in ultrapure water. The bacteria were mixed and incubated with the test compounds for 30 min at 37 °C prior to being plated and further incubated for 48 h at 37 °C. Finally, the number of grown revertant colonies was counted.

[7] = tested on: Salmonella typhimurium strain TA1535
Protocol: as §3

BALB/c 3T3 cells [8] = assay: BALB/c 3T3 cell transformation assay (CTA); conditions: for cell-transforming potential: controls 61.54 µM DHAA
Protocol: The CTA was performed as previously described (Sasaki et al. [2012a]) and began with the seeding of 2 × 10^4 BALB/c 3T3 cells in 100 mm dishes (TPP) filled with 10 ml MEM medium. On day 1, the cells were incubated with the test substances for three days, followed by a medium change on day 4. From now on, the cells were incubated in DMEM/HAM’s F-12 medium supplemented with 2% (v/v) FCS, 100 µg ml^−1 streptomycin, 100 IU ml^−1 penicillin (all components were obtained from Biochrom) and 2 µg ml^−1 bovine pancreas insulin solution (Sigma-Aldrich). On days 7, 10, 14, 17, 21 and 24, the medium was changed and the cells were finally fixed on day 31 using ice-cold methanol. Lastly, the plates were stained with Giemsa solution and the number of type III foci formed was counted using a stereo microscope (SZX2-ILLT; Olympus, Hamburg, Germany).

BALB/c 3T3 cells [9] = assay: Colony forming efficiency (CFE) cytotoxicity assay; conditions: for concentration at which cytotoxicity starts: CFE
Protocol: Briefly, 200 BALB/c 3T3 cells were seeded in 60 mm dishes (TPP) filled with 4 ml MEM medium. […] 3-Methylcholanthrene (MCA, Sigma-Aldrich) dissolved in DMSO was used as positive control. On day 4, the medium was removed and 4 ml fresh culture medium were added. On day 9, the cells were washed with saline, fixed with 4 ml ice-cold methanol (Carl Roth) for 10 min and then stained with Giemsa solution (Carl Roth) for 30 min. Finally, the stained dishes were washed with water and air-dried before cell colonies with a diameter of ≥ 2 mm were counted.

DNA = tested on: DNA; design: method as in Tamir et al. [1996]; conditions: at least tenfold higher than NO-heme; ref Tamir et al. [1996]; cited from earlier work
CHO-K1 cells = assay type: cell-based, Chinese hamster
Protocol: (§4) The investigation of potential cytotoxic effects induced by NO-heme in CHO-K1 cells was performed using a commercial cell proliferation kit based on the MTT reagent obtained from Roche Diagnostics and performed according to the manufacturer's instructions. Briefly, 3.5 × 10^4 cells/well were seeded in 96-well plates (Greiner Diagnostic, Balingen, Germany). Approximately 24 h later, the cells were treated with different NO-heme and acetone concentrations for another 24 h. Subsequently, cells were incubated with the MTT solution for 4 h, before 100 µl DMSO (Carl Roth) were added and absorbance was measured at a wavelength of 570 nm using a microplate reader (EL600; BioTek Instruments, Winooski, USA). The mitochondrial metabolic activity of NO-heme-treated cells was thereby compared to the vehicle control. The HPRT assay was performed according to OECD test guideline no. 476 (OECD [2016]) without exogenous metabolic activation. Briefly, 5 × 10^5 cells per sample were seeded in a 75 cm^2 cell culture flask (Greiner Bio-One) containing 15 ml of McCoy’s 5A medium. […] After another period of 9 days, colonies resistant to 6-thioguanine were fixed with methanol (Carl Roth), stained with methylene blue (Carl Roth) and counted. For the final evaluation of the test, the absolute number of mutations per one million CHO-K1 cells was calculated.

[10] = exposure to UV light and oxygen (sunlight and air), room temperature
Protocol: For the analysis of stability, NO-heme was stored in 15 ml centrifuge tubes (Greiner Bio-One, Frickenhausen, Germany) under different light and atmospheric conditions. […] The final solution was further diluted in 80% acetone/H2O to a final volume of 12.5 ml and allocated to four centrifuge tubes containing 3 ml each. Two of the NO-heme samples were stored in the dark at room temperature, flushed with nitrogen and additionally sealed with thermoplastic film (Parafilm® M, Sigma-Aldrich). The other samples were incubated at room temperature and exposed to sunlight and air. The NO-heme content of each tube was analyzed by UV–Vis and FTIR spectroscopy after 0, 2, 4 and 24 h of incubation.

CHO-K1-BH4 cells = assay: In vitro mammalian cell gene mutation test (HPRT assay); assay type: cell-based, Chinese hamster; conditions: 4 h treatment, without metabolic activation, 100 µM as well as 200 µM heme species, nitrite control 100 µM
Protocol: as §4

[11] = ref Kodama et al. [1976]; Tsuda and Hasegawa [1990]; Stevanovic et al. [2000]; cited from earlier work
BALB/c 3T3 cells [12] = conditions: ref Kodama et al. [1976]; Tsuda and Hasegawa [1990]; Stevanovic et al. [2000]; cited from earlier work
murine cell lines = conditions: ref Kodama et al. [1976], Görsdorf et al. [1990]; cited from earlier work
[13] = TA100, pre-incubation method, up to 300 µM NO-heme and hematin, 1.54 mM NaN3, 100 µM NaNO2
[14] = TA1535, pre-incubation method, up to 300 µM NO-heme and hematin, 1.54 mM NaN3, 100 µM NaNO2

O=CCC=O [MDA, malondialdehyde]
mutagenicity in the HGPRT assay [1]: mutagenic potential

C=CC1=C(C)c2cc3[n-]c(cc4[n-]c(cc5nc(cc1n2)C(C)=C5C=C)c(C)c4CCC(=O)O)c(CCC(=O)O)c3C.O.[Fe+2] [hematin]
expression of HO-1 [2]: increased expression of HO-1
relative cell viability (Caco-2 cells [3]; Caco-2 cells, 24 h, WST-1): 45 % of the control
concentration range with statistically significant increase of tail intensity (BALB/c 3T3 cells [4]): 10 to 100 µM
increase of the tail intensity (genotoxic effect) (BALB/c 3T3 cells [4]): dose-dependent increase of the tail intensity with statistically significant effects
genotoxic effects (tail intensity) (Caco-2 cells [5]): exhibiting genotoxic effects
mutagenic effects (revertant colonies) [6, 13]: no mutagenic effects were detected
mutagenic effects (revertant colonies) [7, 14]: no mutagenic effects were detected
amount of type III foci compared to the corresponding solvent control (BALB/c 3T3 cells [8]; 150 µM, treatment for three days): significant increase
cytotoxicity (BALB/c 3T3 cells [9]; up to the maximum concentration of 200 µM): no sign of cytotoxicity

O=NOO [peroxynitrite]
concentration needed to induce DNA strand breaks (DNA): 1000 µM

[N-]=[N+]=[N-].[Na+] [NaN3, Sodium azide]
mutagenic effects (revertant colonies) [6, 13]: Except for the positive control NaN3, no mutagenic effects were detected
mutagenic effects (revertant colonies) [7, 14]: Except for the positive control NaN3, no mutagenic effects were detected

O=C1OC(C(O)CO)C(=O)C1=O (stereo not shown) [DHAA, dehydroascorbic acid]
cell-transforming potential (BALB/c 3T3 cells [8]; 100 µM NaNO2): no cell-transforming potential
concentration at which cytotoxicity starts (BALB/c 3T3 cells [9]): 750 µM

nitrosylated heme [NO-heme]
expression of HO-1 [2]: increased expression of HO-1
relative cell viability (Caco-2 cells [3]): 43 % of the control
concentration needed to induce DNA strand breaks (Caco-2 cells [5]): 100 µM
mutagenic effects (revertant colonies) [6, 13]: no mutagenic effects were detected
mutagenic effects (revertant colonies) [7, 14]: no mutagenic effects were detected
relative cell viability (CHO-K1 cells; 50 µM): 87%
relative cell viability (CHO-K1 cells; 200 µM): 59%
time until absorbance signals in the UV–Vis spectrum are reduced [10]: two

O=N[O-].[Na+] [sodium nitrite, Sodium nitrite]
increase of the tail intensity (genotoxic effect) (BALB/c 3T3 cells [4]): no genotoxic, mutagenic or cell-transforming effects
genotoxic effects (tail intensity) (Caco-2 cells [5]): no genotoxic, mutagenic or cell-transforming effects
mutagenic effects (revertant colonies) [6]: no genotoxic, mutagenic or cell-transforming effects
mutagenic effects (revertant colonies) [7]: no genotoxic, mutagenic or cell-transforming effects
frequencies of mutations compared to the solvent controls (CHO-K1-BH4 cells): no genotoxic, mutagenic or cell-transforming effects
concentrations at which mutagenic in the HPRT assay [11]: 1000 to 10000 µM
concentrations leading to malignant transformation of BALB/c 3T3 cells (BALB/c 3T3 cells [12]): 1000 to 10000 µM
induction of DNA single strand breaks (murine cell lines): did not induce DNA single strand breaks
cell-transforming potential (BALB/c 3T3 cells [8]; 100 µM NaNO2): no cell-transforming potential
cell-transforming potential (BALB/c 3T3 cells [8]; 100 µM NaNO2, listed as nitrite): no genotoxic, mutagenic or cell-transforming effects
concentration at which cytotoxicity starts (BALB/c 3T3 cells [9]): 6000 µM
